This is an account of results in patent publication US20040053884A1, “Preventives or remedies for arthritis” (priority 2001, published 2004).

Counter-ions that a name gives are not always drawn.

The subject of assay [1] is mice with type II collagen-induced arthritis. The assay can be described thus: Test Example 1: N-acetylhydroxyproline and glucosamine in feed, type II collagen-induced arthritis score. Format: in vivo, DBA/1J mice. Particulars: for Scores compared with control (in words): 0.1% added to the feed, compared with no additive (control); for Score of arthritis: 0.1% in feed from day of first collagen administration, mean ±SE, N=20, scale 0-16. An excerpt:
(§1) Unless otherwise noted, in the following test examples, DBA/1J mice produced by Charles River, powder feed CE2 produced by CLEA Japan, N-acetylhydroxyproline produced by Kyowa Hakko Kogyo, D-glucosamine sulfate 2NaCl as glucosamine (Miyako Kagaku) and chondroitin sodium sulfate (Maruha Kagaku) as chondtoitin were used.
It is known that arthritis is induced in DBA/1J mice by administering type II collagen two times.
As the first administration of type II collagen, a solution prepared by mixing an equal amount of type II collagen [Collagen Gijutsu Kenshu Kaisha (MCK)] and Freund's complete adjuvant (Iatron) and emulsifying the mixture using a homogenizer was intradermally administered to 6-week old male DBA/1J mice in an amount of 100 μl per one animal.
Twenty-one days after the first administration of type II collagen, EXAMPLE a solution prepared by mixing an equal amount of type II collagen and Freund's complete adjuvant and emulsifying the mixture using a homogenizer in a similar manner was intradermally administered to the animals in an amount of 100 μl per one animal as the second administration of type II collagen. In this manner, arthritis was induced in mice.
Starting on the day of the first administration of type II collagen, the mice were given powder feed CE-2 containing no additive as control; powder feed CE-2 containing 0.1% N-acetylhydroxyproline (indicated as AcHYP in Tables 1-1 and 1-2); powder feed CE-2 containing 0.1% glucosamine (D-glucosamine sulfate 2NaCl); and powder feed CE-2 containing 0.05% N-acetylhydroxyproline and 0.05% glucosamine, respectively. At days 24, 28, 31, 34, 38 and 42 after the first administration of type II collagen, the extent of the development of arthritis was scored according to the following indices.
(§2) Scoring was carried out by applying 0-4 points with respect to one of four paws of mice: 0: no symptom; 1: swelling of one finger or swelling (slight) of the ankle; 2: swelling of 1-3 fingers or swelling of the ankle; 3: swelling of 3-5 fingers plus swelling of the ankle; and 4: swelling of all the fingers plus swelling of the ankle. Each mouse was scored the total of the points of 4 paws, namely, 0-16 points.
(§3) Twenty mice were subjected to the test with respect to each of the conditions.
(§4) In the tables, the figures show the scores under different treatment conditions, which are given as mean ±SE (N=20).
(§5) In the tables, “no treatment” means no administration of type II collagen, and “control” means mice were given the feed containing no additive.

For assay [2] the test system is unchanged. The assay can be described thus: Test Example 4: feed given from day 28 (after induction), type II collagen-induced arthritis score. Format: in vivo, DBA/1J mice. The conditions noted are these: day 0 (before feeding); 0.1% in feed starting at day 28; mean ±SE, N=10; scale 0-16.
Assay [3] has the same test system. The description is as above. The assay is classed as in vivo, DBA/1J mice. The conditions noted are these: for Scores compared with control (in words): 0.1% added to the feed from day 28, any of the days after day 33; for Score of arthritis: 0.1% in feed starting at day 28, mean ±SE, N=10, scale 0-16. On the procedure:
as §1, §2
As in Test Example 1, 21 days after the first administration of type II collagen, a solution prepared by mixing an equal amount of type II collagen and Freund's complete adjuvant and emulsifying the mixture using a homogenizer in a similar manner as in Test Example 1 was intradermally administered to the mice in an amount of 100 μl per one animal as the second administration of type II collagen. In this manner, arthritis was induced in mice.
Starting at day 28 after the first administration of type II collagen, the mice were given powder feed CE-2 containing no additive as control; powder feed CE-2 containing 0.1% N-acetylhydroxyproline (indicated as AcHYP in Tables 4-1 and 4-2); powder feed CE-2 containing 0.1% glucosamine; powder feed CE-2 containing 0.05% N-acetylhydroxyproline and 0.05% glucosamine; powder feed CE-2 containing 0.05% glucosamine and 0.05% chondroitin; and powder feed CE-2 containing 0.05% N-acetylhydroxyproline, 0.025% glucosamine and 0.025% chondroitin, respectively. At days 28, 33, 36, 39 and 42 after the first administration of type II collagen, the extent of the development of arthritis was scored according to the indices employed in the above Test Example 1.
Ten mice were subjected to the test with respect to each of the conditions.
In the tables, the figures show the scores under different treatment conditions, which are given as mean ±SE (N=10).
as §5

For assay [4] the test system is unchanged. The assay can be described thus: Test Example 2: N-acetylhydroxyproline and chondroitin in feed, type II collagen-induced arthritis score. The assay is classed as in vivo, DBA/1J mice. On the set-up: key to Score of arthritis: sum of 4 paws scored 0-4 each, 0-16 points; 0 = no symptom. The conditions noted are these: for Score compared with control (in words): 0.1% added to the feed; for Score of arthritis: 0.1% in feed from day of first collagen administration, mean ±SE, N=20, scale 0-16. On the procedure: as §1, §2
An experiment similar to that of Test Example 1 was carried out except that chondroitin was used in place of glucosamine.
(§6) That is, 21 days after the first administration of type II collagen, a solution prepared by mixing an equal amount of type II collagen and Freund's complete adjuvant and emulsifying the mixture using a homogenizer in a similar manner as in Test Example 1 was intradermally administered to the mice in an amount of 100 μl per one animal as the second administration of type II collagen. In this manner, arthritis was induced in mice.
Starting on the day of the first administration of type II collagen, the mice were given powder feed CE-2 containing no additive as control; powder feed CE-2 containing 0.1% N-acetylhydroxyproline (indicated as AcHYP in Tables 2-1 and 2-2); powder feed CE-2 containing 0.1% chondroitin; and powder feed CE-2 containing 0.05% N-acetylhydroxyproline and 0.05% chondroitin, respectively. At days 23, 27, 30, 33, 36, 40 and 42 after the first administration of type II collagen, the extent of the development of arthritis was scored according to the indices employed in the above Test Example 1.
as §3, §4, §5

Assay [5] has as its system animal model for arthritis. The conditions noted are these: administration after induction of arthritis; J. Drug. Dev., 3, 135-142 (1990); cited from earlier work.
The test system of assay [6] is mice with type II collagen-induced arthritis. In words: Test Example 3: N-acetylhydroxyproline, glucosamine and chondroitin in feed, type II collagen-induced arthritis score. The assay is classed as in vivo, DBA/1J mice. The conditions noted are these: for Score of arthritis: 0.05% of each additive in feed from day of first collagen administration, mean ±SE, N=20, scale 0-16. On the procedure: as §1, §2
An experiment similar to that of Test Example 1 was carried out except that glucosamine and chondroitin were used in place of glucosamine.
as §6
Starting on the day of the first administration of type II collagen, the mice were given powder feed CE-2 containing no additive as control; powder feed CE-2 containing 0.05% N-acetylhydroxyproline (indicated as AcHYP in Tables 3-1 and 3-2); powder feed CE-2 containing 0.05% N-acetylhydroxyproline and 0.05% chondroitin; and powder feed CE-2 containing 0.05% N-acetylhydroxyproline, 0.05% glucosamine and 0.05% chondroitin, respectively. At days 24, 28, 31, 35, 38 and 42 after the first administration of type II collagen, the extent of the development of arthritis was scored according to the indices employed in the above Test Example 1.
as §3, §4, §5

Assay [7] deals with arthritis. The conditions noted are these: Pharmacological Research, 33, 367-373 (1996); cited from earlier work.

With `N[C@H]1C(O)O[C@H](CO)[C@@H](O)[C@@H]1O` (stereo partly drawn) [Glucosamine, D-glucosamine sulfate 2NaCl], the “Scores compared with control (in words)” value is on record as “lowering of the scores” in assay [1] and “slight lowering of the scores” in assay [3]. The Score of arthritis came out at 0.0 ± 0.0 in assay [1] (day 0); 0.1 ± 0.1 in assay [1] (day 24); 5.8 ± 0.6 in assay [1] (day 28); 7.7 ± 0.7 in assay [1] (day 31); 9.2 ± 0.7 in assay [1] (day 34); 9.5 ± 0.6 in assay [1] (day 38). Moreover, the Score of arthritis in assay [1] (day 42) is on record as 9.4 ± 0.6; in assay [2], 0.0 ± 0.0; in assay [3] (day 28 (start of feeding)), 4.3 ± 0.9; in assay [3] (day 33), 9.8 ± 1.2; in assay [3] (day 36), 10.1 ± 1.1; in assay [3] (day 39), 10.4 ± 1.0. In assay [3] (day 42), this molecule displayed a Score of arthritis of 10.6 ± 1.0.

For `CC(=O)N1C[C@H](O)C[C@H]1C(=O)O` [AcHYP, N-acetylhydroxyproline], the “Scores compared with control (in words)” value in assay [1] is “lowering of the scores”; in assay [3], “slight lowering of the scores”; in assay [6] (0.05% of each additive in the feed, any of the days after day 24) it was “almost no lowering of the scores”. For the same molecule, the Score of arthritis in assay [1] (day 0) came out at 0.0 ± 0.0; in assay [1] (day 24) it was 0.0 ± 0.0; in assay [1] (day 28), 6.5 ± 0.7; in assay [1] (day 31) it was 9.5 ± 0.8; in assay [1] (day 34), 10.7 ± 0.8; in assay [1] (day 38) it was 10.8 ± 0.8. For the same molecule, the Score of arthritis in assay [1] (day 42) came to 10.6 ± 0.8; in assay [2] it was 0.0 ± 0.0; in assay [3] (day 28 (start of feeding)), 4.3 ± 0.9; in assay [3] (day 33) it was 9.8 ± 1.0; in assay [3] (day 36) it was 10.9 ± 1.1; in assay [3] (day 39) it was 10.7 ± 1.1. In addition, the Score of arthritis is 10.8 ± 1.0 in assay [3] (day 42); 0.0 ± 0.0 in assay [4] (day 0); 0.1 ± 0.1 in assay [4] (day 23); 3.3 ± 0.7 in assay [4] (day 27); 7.0 ± 0.9 in assay [4] (day 30); 7.8 ± 0.9 in assay [4] (day 33). Besides, the Score of arthritis is reported as 7.9 ± 1.0 in assay [4] (day 36); 8.4 ± 0.9 in assay [4] (day 40); 8.8 ± 0.8 in assay [4] (day 42); 0.0 ± 0.0 in assay [6] (day 0); 0.2 ± 0.1 in assay [6] (day 24); 5.4 ± 0.6 in assay [6] (day 28). In addition, the Score of arthritis was found to be 8.5 ± 0.7 in assay [6] (day 31), 9.4 ± 0.8 in assay [6] (day 35), 9.9 ± 0.8 in assay [6] (day 38) and 9.4 ± 0.7 in assay [6] (day 42). The “Score compared with control (in words)” value in assay [4] (any of the days after day 27) was “lowering of the score”. Further, in assay [5], the Aggravation of arthritis result is “can prevent aggravation of arthritis”. The “Effect on chondral injury at joints” value in assay [7] is recorded as “shows no effect”. Besides, the “Effect on systemic injury of ear and tail” value in assay [7] is recorded as “shows a therapeutic effect”.

Consider chondroitin sodium sulfate, for which the “Score compared with control (in words)” value in assay [4] (after day 36) is “almost no lowering of the score”; in assay [4] (until day 33), “slight lowering of the score”. For the same molecule, the Score of arthritis is recorded as 0.0 ± 0.0 in assay [4] (day 0); 0.1 ± 0.1 in assay [4] (day 23); 3.4 ± 0.6 in assay [4] (day 27); 7.8 ± 1.0 in assay [4] (day 30); 9.1 ± 0.9 in assay [4] (day 33); 9.7 ± 0.8 in assay [4] (day 36). Further, the Score of arthritis is reported as 9.9 ± 0.8 in assay [4] (day 40) and 9.8 ± 0.7 in assay [4] (day 42).
